Results taken from ChEMBL document CHEMBL3885861, “Open TG-GATES”.

Species: Rattus norvegicus
Assay: Open TG-GATES - Regimen: Daily Repeat
Type: toxicity, organism-based, Sprague-Dawley
Design: regimen Daily Repeat, gender Male, age 6 weeks
Conditions: in vivo, po, route gavage; for APTT / Bas / Eos / Fbg / Hb / Ht / Lym / MCH / MCHC / MCV / Mono / Neu / PT / Plat / RBC / Ret / WBC: tissue Blood; for KIDNEY_L / KIDNEY_R / KIDNEY_TOTAL: tissue Kidney; for LIVER: tissue Liver; for A/G / ALP / ALT / AST / BUN / CRE / Ca / Cl / DBIL / GLC / IP / K / LDH / Na / PL / RALB / TBIL / TC / TG / TP / gamma-GTP: tissue Plasma
[1] = 0 mg/kg, 72 h, dose level Control, time 3 day
[2] = 0 mg/kg, […], dose level Control, time 7 day
[3] = 0 mg/kg, […], dose level Control, time 14 day
[4] = 0 mg/kg, […], dose level Control, time 28 day
[5] = 40 mg/kg, 72 h, dose level Low, time 3 day
[6] = 40 mg/kg, […], dose level Low, time 7 day
[7] = 40 mg/kg, […], dose level Low, time 14 day
[8] = 40 mg/kg, […], dose level Low, time 28 day

COc1ccc(Cc2nccc3cc(OC)c(OC)cc23)cc1OC [PAPAVERINE]
TERMINAL_BW [1]: 240.5 g
APTT [1]: 21.1 s
Bas [1]: 0%
Eos [1]: 1%
Fbg [1]: 326.8 mg/dL
Hb [1]: 13.5 g/dL
Ht [1]: 40.7%
Lym [1]: 81.2%
MCH [1]: 21 pg
MCHC [1]: 33.4%
MCV [1]: 63 fL
Mono [1]: 2.2%
Neu [1]: 14.4%
PT [1]: 15.8 s
Plat [1]: 114.4 x10_4/uL
RBC [1]: 645.6 x10_4/ul
Ret [1]: 6.6%
WBC [1]: 105.4 x10_2/uL
KIDNEY_L [1]: 1 g
KIDNEY_R [1]: 1 g
KIDNEY_TOTAL [1]: 2 g
LIVER [1]: 11.4 g
A/G [1]: 1.2
ALP [1]: 1572.8 IU/L
ALT [1]: 41.4 IU/L
AST [1]: 70.2 IU/L
BUN [1]: 16 mg/dL
CRE [1]: 0.2 mg/dL
Ca [1]: 11 mg/dL
Cl [1]: 108.2 meq/L
DBIL [1]: 0 mg/dL
GLC [1]: 202.2 mg/dL
IP [1]: 7.2 mg/dL
K [1]: 4.2 meq/L
LDH [1]: 171.6 IU/L
Na [1]: 142.6 meq/L
PL [1]: 136.4 mg/dL
RALB [1]: 3 g/dL
TBIL [1]: 0.004 mg/dL
TC [1]: 72 mg/dL
TG [1]: 116 mg/dL
TP [1]: 5.5 g/dL
gamma-GTP [1]: 1.2 IU/L
TERMINAL_BW [2]: 267.4 g
TERMINAL_BW [3]: 326.9 g
TERMINAL_BW [4]: 413.6 g
APTT [2]: 23.2 s
Bas [2]: 0%
Eos [2]: 0.8%
Fbg [2]: 299 mg/dL
Hb [2]: 13.7 g/dL
Ht [2]: 40.3%
Lym [2]: 80%
MCH [2]: 21 pg
MCHC [2]: 34.1%
MCV [2]: 61.6 fL
Mono [2]: 2.8%
Neu [2]: 14.8%
PT [2]: 15.7 s
Plat [2]: 111.7 x10_4/uL
RBC [2]: 654 x10_4/ul
Ret [2]: 5.6%
WBC [2]: 125.6 x10_2/uL
APTT [3]: 22.8 s
Bas [3]: 0%
Eos [3]: 1%
Fbg [3]: 316.8 mg/dL
Hb [3]: 14.6 g/dL
Ht [3]: 42.7%
Lym [3]: 82%
MCH [3]: 20.7 pg
MCHC [3]: 34.1%
MCV [3]: 60.5 fL
Mono [3]: 2.2%
Neu [3]: 13.2%
PT [3]: 15.5 s
Plat [3]: 107 x10_4/uL
RBC [3]: 707 x10_4/ul
Ret [3]: 5%
WBC [3]: 120 x10_2/uL
APTT [4]: 24.6 s
Bas [4]: 0%
Eos [4]: 1.6%
Fbg [4]: 315.8 mg/dL
Hb [4]: 14.5 g/dL
Ht [4]: 43.8%
Lym [4]: 77.8%
MCH [4]: 18.7 pg
MCHC [4]: 33%
MCV [4]: 56.6 fL
Mono [4]: 2%
Neu [4]: 17.8%
PT [4]: 16 s
Plat [4]: 101.3 x10_4/uL
RBC [4]: 775 x10_4/ul
Ret [4]: 3%
WBC [4]: 123.2 x10_2/uL
KIDNEY_L [2]: 1.1 g
KIDNEY_R [2]: 1.1 g
KIDNEY_TOTAL [2]: 2.2 g
KIDNEY_L [3]: 1.2 g
KIDNEY_R [3]: 1.3 g
KIDNEY_TOTAL [3]: 2.5 g
KIDNEY_L [4]: 1.4 g
KIDNEY_R [4]: 1.5 g
KIDNEY_TOTAL [4]: 3 g
LIVER [2]: 12.1 g
LIVER [3]: 14.2 g
LIVER [4]: 16.8 g
A/G [2]: 1.2
ALP [2]: 1358 IU/L
ALT [2]: 47 IU/L
AST [2]: 82.2 IU/L
BUN [2]: 19.4 mg/dL
CRE [2]: 0.2 mg/dL
Ca [2]: 10.3 mg/dL
Cl [2]: 107.2 meq/L
DBIL [2]: 0 mg/dL
GLC [2]: 203.2 mg/dL
IP [2]: 6.7 mg/dL
K [2]: 4.4 meq/L
LDH [2]: 248.2 IU/L
Na [2]: 140.4 meq/L
PL [2]: 148.8 mg/dL
RALB [2]: 3 g/dL
TBIL [2]: 0 mg/dL
TC [2]: 75 mg/dL
TG [2]: 101.6 mg/dL
TP [2]: 5.5 g/dL
gamma-GTP [2]: 2 IU/L
A/G [3]: 1.1
ALP [3]: 1381.4 IU/L
ALT [3]: 42.2 IU/L
AST [3]: 67 IU/L
BUN [3]: 17.6 mg/dL
CRE [3]: 0.2 mg/dL
Ca [3]: 10.5 mg/dL
Cl [3]: 106.6 meq/L
DBIL [3]: 0 mg/dL
GLC [3]: 199.6 mg/dL
IP [3]: 6.7 mg/dL
K [3]: 4.4 meq/L
LDH [3]: 164.6 IU/L
Na [3]: 142.8 meq/L
PL [3]: 148.4 mg/dL
RALB [3]: 3 g/dL
TBIL [3]: 0.016 mg/dL
TC [3]: 78.4 mg/dL
TG [3]: 119.2 mg/dL
TP [3]: 5.7 g/dL
gamma-GTP [3]: 2.4 IU/L
A/G [4]: 1.1
ALP [4]: 1231 IU/L
ALT [4]: 44.4 IU/L
AST [4]: 68.2 IU/L
BUN [4]: 20 mg/dL
CRE [4]: 0.2 mg/dL
Ca [4]: 10.2 mg/dL
Cl [4]: 105 meq/L
DBIL [4]: 0 mg/dL
GLC [4]: 211.4 mg/dL
IP [4]: 6.2 mg/dL
K [4]: 4.1 meq/L
LDH [4]: 160.4 IU/L
Na [4]: 141.4 meq/L
PL [4]: 147.4 mg/dL
RALB [4]: 3.1 g/dL
TBIL [4]: 0.008 mg/dL
TC [4]: 73.6 mg/dL
TG [4]: 132.6 mg/dL
TP [4]: 5.8 g/dL
gamma-GTP [4]: 3.2 IU/L
TERMINAL_BW [5]: 246.9 g
APTT [5]: 21.6 s
Bas [5]: 0%
Eos [5]: 0.6%
Fbg [5]: 325.8 mg/dL
Hb [5]: 13.1 g/dL
Ht [5]: 39.6%
Lym [5]: 77.6%
MCH [5]: 21.1 pg
MCHC [5]: 33.2%
MCV [5]: 63.6 fL
Mono [5]: 2.8%
Neu [5]: 18%
PT [5]: 15.5 s
Plat [5]: 124.7 x10_4/uL
RBC [5]: 624.6 x10_4/ul
Ret [5]: 6.8%
WBC [5]: 102.4 x10_2/uL
KIDNEY_L [5]: 1 g
KIDNEY_R [5]: 1.1 g
KIDNEY_TOTAL [5]: 2.1 g
LIVER [5]: 11.6 g
A/G [5]: 1.2
ALP [5]: 1776.4 IU/L
ALT [5]: 44.2 IU/L
AST [5]: 73 IU/L
BUN [5]: 17 mg/dL
CRE [5]: 0.1 mg/dL
Ca [5]: 10.9 mg/dL
Cl [5]: 107.6 meq/L
DBIL [5]: 0 mg/dL
GLC [5]: 185.4 mg/dL
IP [5]: 7.5 mg/dL
K [5]: 4.5 meq/L
LDH [5]: 184 IU/L
Na [5]: 142.2 meq/L
PL [5]: 153.4 mg/dL
RALB [5]: 3 g/dL
TBIL [5]: 0.008 mg/dL
TC [5]: 77.8 mg/dL
TG [5]: 126 mg/dL
TP [5]: 5.6 g/dL
gamma-GTP [5]: 1.4 IU/L
TERMINAL_BW [6]: 281.8 g
TERMINAL_BW [7]: 316.9 g
TERMINAL_BW [8]: 422.2 g
APTT [6]: 21.6 s
Bas [6]: 0%
Eos [6]: 1%
Fbg [6]: 317.8 mg/dL
Hb [6]: 13.1 g/dL
Ht [6]: 38.8%
Lym [6]: 80.2%
MCH [6]: 20.8 pg
MCHC [6]: 33.7%
MCV [6]: 61.8 fL
Mono [6]: 2.2%
Neu [6]: 15.8%
PT [6]: 15.4 s
Plat [6]: 123 x10_4/uL
RBC [6]: 628 x10_4/ul
Ret [6]: 6.3%
WBC [6]: 124.1 x10_2/uL
APTT [7]: 23 s
Bas [7]: 0%
Eos [7]: 0.6%
Fbg [7]: 342.6 mg/dL
Hb [7]: 14.2 g/dL
Ht [7]: 41.8%
Lym [7]: 79%
MCH [7]: 19.7 pg
MCHC [7]: 34%
MCV [7]: 57.9 fL
Mono [7]: 2%
Neu [7]: 16.6%
PT [7]: 15.6 s
Plat [7]: 111.2 x10_4/uL
RBC [7]: 722.6 x10_4/ul
Ret [7]: 4.6%
WBC [7]: 128.3 x10_2/uL
APTT [8]: 25.2 s
Bas [8]: 0%
Eos [8]: 1%
Fbg [8]: 319 mg/dL
Hb [8]: 14.5 g/dL
Ht [8]: 43.8%
Lym [8]: 80%
MCH [8]: 19.1 pg
MCHC [8]: 33.1%
MCV [8]: 57.7 fL
Mono [8]: 1.8%
Neu [8]: 15.8%
PT [8]: 15.8 s
Plat [8]: 105.3 x10_4/uL
RBC [8]: 760.4 x10_4/ul
Ret [8]: 3.1%
WBC [8]: 151.9 x10_2/uL
KIDNEY_L [6]: 1.2 g
KIDNEY_R [6]: 1.2 g
KIDNEY_TOTAL [6]: 2.4 g
KIDNEY_L [7]: 1.2 g
KIDNEY_R [7]: 1.2 g
KIDNEY_TOTAL [7]: 2.5 g
KIDNEY_L [8]: 1.4 g
KIDNEY_R [8]: 1.5 g
KIDNEY_TOTAL [8]: 2.9 g
LIVER [6]: 13.2 g
LIVER [7]: 14.1 g
LIVER [8]: 17.3 g
A/G [6]: 1.2
ALP [6]: 1841.6 IU/L
ALT [6]: 40.6 IU/L
AST [6]: 67.2 IU/L
BUN [6]: 19.8 mg/dL
CRE [6]: 0.1 mg/dL
Ca [6]: 10.8 mg/dL
Cl [6]: 106 meq/L
DBIL [6]: 0 mg/dL
GLC [6]: 189.6 mg/dL
IP [6]: 6.8 mg/dL
K [6]: 4.5 meq/L
LDH [6]: 157 IU/L
Na [6]: 140.8 meq/L
PL [6]: 155.6 mg/dL
RALB [6]: 3 g/dL
TBIL [6]: 0.002 mg/dL
TC [6]: 76.4 mg/dL
TG [6]: 132.6 mg/dL
TP [6]: 5.5 g/dL
gamma-GTP [6]: 2.6 IU/L
A/G [7]: 1.1
ALP [7]: 1354 IU/L
ALT [7]: 40.6 IU/L
AST [7]: 67.4 IU/L
BUN [7]: 20.2 mg/dL
CRE [7]: 0.2 mg/dL
Ca [7]: 10.2 mg/dL
Cl [7]: 106.4 meq/L
DBIL [7]: 0 mg/dL
GLC [7]: 193.4 mg/dL
IP [7]: 6.9 mg/dL
K [7]: 4.2 meq/L
LDH [7]: 151.6 IU/L
Na [7]: 143 meq/L
PL [7]: 139.2 mg/dL
RALB [7]: 2.9 g/dL
TBIL [7]: 0.014 mg/dL
TC [7]: 64.2 mg/dL
TG [7]: 168 mg/dL
TP [7]: 5.7 g/dL
gamma-GTP [7]: 2 IU/L
A/G [8]: 1.1
ALP [8]: 1003.2 IU/L
ALT [8]: 36.4 IU/L
AST [8]: 62.2 IU/L
BUN [8]: 20 mg/dL
CRE [8]: 0.2 mg/dL
Ca [8]: 10.2 mg/dL
Cl [8]: 106 meq/L
DBIL [8]: 0 mg/dL
GLC [8]: 196 mg/dL
IP [8]: 6 mg/dL
K [8]: 4.1 meq/L
LDH [8]: 141.6 IU/L
Na [8]: 141.8 meq/L
PL [8]: 142.4 mg/dL
RALB [8]: 3.2 g/dL
TBIL [8]: 0.008 mg/dL
TC [8]: 68.6 mg/dL
TG [8]: 152.4 mg/dL
TP [8]: 6 g/dL
gamma-GTP [8]: 2.6 IU/L
